Test results as given in patent US20250017874A1, “PHARMACEUTICAL COMPOSITIONS FOR USE IN REDUCING HYPERPIGMENTATION” (Caliway Biopharmaceuticals Co., Ltd., priority 2023, published 2025).
Like-named read-outs stand apart in the source and are kept apart here.

How the values were obtained:
Assay type in all cases: cell-based, mouse
B16-F10 cells [1] = test: In vitro melanin content versus arbutin and hydroquinone (Example 6)
Experimental: Except the vehicle group, cells of the other groups were cultured with α-MSH for 24 hours first. The compositions for investigation (see Tables 19 and 20) were then added to the culture medium and the cells were further cultured for 24 hours. The rest of the experimental operation process was similar to that described in Example 3. […] [table] [table]

B16-F10 cell line [2] = test: In vitro whitening efficacy: melanin content (Example 7); details: Table 26
Excerpt: (§1) Table 23 below lists the study design for evaluating EC50 values of IM01, which contains 4-[(E)-2-(3,5-dihydroxyphenyl)ethenyl]benzene-1,3-diol.
(§2) Table 25 below lists the study design for evaluating EC50 values of IM01, which contains 4-[(E)-2-(3,5-dihydroxyphenyl)ethenyl]benzene-1,3-diol.

B16-F10 cells [3] = test: In vitro efficacy comparison: melanin content, α-MSH 0.5 h then test article 30 h (Example 5); details: α-MSH 0.5 h then TA 30 h
Experimental: B16-F10 cells were seeded in a 96-well plate. Except the vehicle group, cells of the other groups were cultured in the presence of α-MSH for 0.5 hours first. The compositions for examination were then added to the culture medium and the cells were further cultured for 30 hours. The rest of the experimental conditions and procedures were similar to those described in Example 3. Afterwards, the cells were collected to evaluate the effect of 4-[(E)-2-(3,5-dihydroxyphenyl)ethenyl]benzene-1,3-diol compositions (IM01 Group) and Arbutin and 5-[(E)-2-(4-hydroxyphenyl)ethenyl]benzene-1,3-diol (IM00 Group) compositions on reducing melanin levels. The experimental design is summarized in Table 18 and results shown in both Table 18 and FIG. 5.

B16-F10 cell line [4] = details: mouse
Excerpt: as §1, §2

Compound	Melanin content (%) Mean ± SD (B16-F10 cells [1]; TA 450 μM, Table 21 experiment) [%]	Melanin content (%) Mean ± SD (B16-F10 cells [1]; TA 900 μM, Table 21 experiment) [%]	Melanin content (%) Mean ± SD (B16-F10 cells [1]; TA 900 μM, Table 22 experiment) [%]	Melanin content (%) Mean ± SD (B16-F10 cells [1]; TA 1800 μM, Table 22 experiment) [%]	Melanin content (%) (B16-F10 cell line [2]; TA 450 μM (Arbutin/L))	Melanin content (%) (B16-F10 cell line [2]; TA 900 μM (Arbutin/H))	Melanin content (%) Mean (B16-F10 cells [3]; TA 918.27 μM) [%]	Relative cell viability (%) (B16-F10 cell line [4]; 450 μM)	Relative cell viability (%) (B16-F10 cell line [4]; 900 μM)	Melanin content (%) Mean (B16-F10 cells [3]; TA 87.62 μM (IM00-20)) [%]
OC[C@H]1O[C@@H](Oc2ccc(O)cc2)[C@H](O)[C@@H](O)[C@@H]1O [Arbutin, reference compound]	76.1 ± 6.3	60.9 ± 4.5	62.8 ± 1.8	47.1 ± 0.3	78.5 ± 1.1	67.0 ± 2.8	95.8	100.8 ± 1.2	93.7 ± 1.6	
Oc1ccc(/C=C/c2cc(O)cc(O)c2)cc1 [IM00, 5-[(E)-2-(4-hydroxyphenyl)ethenyl]benzene-1,3-diol]										98.9
